Measured values as given in the NIST ThermoML archive (doi:10.1016/j.tca.2010.02.008).

Test: excess molar enthalpy (molar enthalpy of mixing); xn = mol fraction of the nth substance listed
Conditions: 773.15 K, 101 kPa, Liquid, Calvet calorimetry

[In] [indium] + [Sn]
Conditions | excess molar enthalpy [kJ/mol]
x2 = 0.1 | -0.183
x2 = 0.1966 | -0.374
x2 = 0.2981 | -0.437
x2 = 0.4041 | -0.383
x2 = 0.5002 | -0.331
x2 = 0.5005 | -0.316
x2 = 0.5949 | -0.301
x2 = 0.6901 | -0.241
x2 = 0.7891 | -0.165
x2 = 0.8975 | -0.087
